Laboratory results as given in the OligoGym collection.
HELM strings list units from the 5' end as sugar, base in round brackets, then linkage (d deoxyribose, r ribose, m 2'-O-methyl, p phosphodiester). Strings are as the collection lists them; they lack the last nucleoside at the 3' end of the tested compound. [moe] = 2'-O-(2-methoxyethyl) (MOE); [sp] = phosphorothioate linkage; [m5C] = 5-methylcytosine

Each substance was assayed against ATXN3 (assay: mouse, dose not given). Settings: ASO.
“RNA1{[moe](G)[sp].[moe]([m5C])p.[moe](A)p.[moe](T)p.[moe](A)[sp].d(T)[sp].d(T)[sp].d(G)[sp].d(G)[sp].d(T)[sp].d(T)[sp].d(T)[sp].d(T)[sp].d([m5C])[sp].d(T)[sp].[moe]([m5C])p.[moe](A)p.[moe](T)p.[moe](T)}$$$$ (last 3' nucleoside missing)” was tested, and the 3 h FOB score was 3 score 0-7. “RNA1{[moe](A)[sp].[moe](T)p.[moe](G)p.[moe](T)p.[moe](T)p.[moe]([m5C])p.d(A)[sp].d(T)[sp].d(A)[sp].d(T)[sp].d([m5C])[sp].d([m5C])[sp].d(T)[sp].d(T)[sp].d(T)[sp].d(A)[sp].[moe](A)p.[moe]([m5C])[sp].[moe]([m5C])}$$$$ (last 3' nucleoside missing)” showed a 3 h FOB score of 0 score 0-7. “RNA1{[moe](T)[sp].[moe](G)[sp].[moe]([m5C])p.[moe](T)p.[moe]([m5C])[sp].d(A)[sp].d(T)[sp].d(T)[sp].d(T)[sp].d(A)[sp].d(T)[sp].d(T)[sp].d([m5C])[sp].d(T)[sp].d([m5C])[sp].[moe](A)p.[moe](A)p.[moe](G)[sp].[moe](T)}$$$$ (last 3' nucleoside missing)” gave a 3 h FOB score of 1 score 0-7. “RNA1{[moe](G)[sp].[moe]([m5C])p.[moe](T)p.[moe](A)p.[moe](T)[sp].d(A)[sp].d(A)[sp].d(T)[sp].d(T)[sp].d([m5C])[sp].d(T)[sp].d(T)[sp].d(G)[sp].d([m5C])[sp].d(T)[sp].[moe](T)p.[moe]([m5C])p.[moe](A)[sp].[moe](A)}$$$$ (last 3' nucleoside missing)” gave a 3 h FOB score of 1.75 score 0-7. “RNA1{[moe](T)[sp].[moe](G)p.[moe](T)p.[moe](A)p.[moe]([m5C])[sp].d(A)[sp].d([m5C])[sp].d(T)[sp].d(T)[sp].d(T)[sp].d(T)[sp].d(A)[sp].d([m5C])[sp].d(A)[sp].d(T)[sp].[moe](T)p.[moe]([m5C])p.[moe]([m5C])[sp].[moe]([m5C])}$$$$ (last 3' nucleoside missing)” was tested, and the 3 h FOB score was 1 score 0-7. In the case of “RNA1{[moe](G)[sp].[moe]([m5C])p.[moe](A)p.[moe]([m5C])p.[moe](A)p.[moe]([m5C])p.d(T)[sp].d(T)[sp].d(T)[sp].d([m5C])[sp].d([m5C])[sp].d(T)[sp].d([m5C])[sp].d([m5C])[sp].d(T)[sp].d([m5C])[sp].[moe](A)p.[moe](A)[sp].[moe](T)}$$$$ (last 3' nucleoside missing)”, the 3 h FOB score is reported as 0 score 0-7. With “RNA1{[moe](G)[sp].[moe]([m5C])[sp].[moe](T)p.[moe]([m5C])p.[moe](A)[sp].d(T)[sp].d(T)[sp].d(T)[sp].d(A)[sp].d(T)[sp].d(T)[sp].d([m5C])[sp].d(T)[sp].d([m5C])[sp].d(A)[sp].[moe](A)p.[moe](G)p.[moe](T)[sp].[moe](A)}$$$$ (last 3' nucleoside missing)” the 3 h FOB score was 1 score 0-7. “RNA1{[moe]([m5C])[sp].[moe]([m5C])p.[moe](A)p.[moe](A)p.[moe](T)p.d(A)[sp].d(T)[sp].d(T)[sp].d(T)[sp].d(A)[sp].d(T)[sp].d(A)[sp].d(G)[sp].d(G)[sp].d(T)[sp].[moe](G)p.[moe]([m5C])p.[moe](T)[sp].[moe](G)}$$$$ (last 3' nucleoside missing)” was tested, and the 3 h FOB score was 1.75 score 0-7. “RNA1{[moe](A)[sp].[moe](T)p.[moe](G)p.[moe]([m5C])p.[moe](T)[sp].d([m5C])[sp].d(A)[sp].d(T)[sp].d(T)[sp].d(T)[sp].d(A)[sp].d(T)[sp].d(T)[sp].d([m5C])[sp].d(T)[sp].[moe]([m5C])p.[moe](A)p.[moe](A)[sp].[moe](G)}$$$$ (last 3' nucleoside missing)” gave a 3 h FOB score of 0 score 0-7. “RNA1{[moe](T)[sp].[moe](G)p.[moe](A)[sp].[moe](G)[sp].[moe]([m5C])[sp].d([m5C])[sp].d(A)[sp].d(A)[sp].d(T)[sp].d(A)[sp].d(T)[sp].d(T)[sp].d(T)[sp].d(A)[sp].d(T)[sp].[moe](A)[sp].[moe](G)p.[moe](G)[sp].[moe](T)}$$$$ (last 3' nucleoside missing)” gave a 3 h FOB score of 4 score 0-7. For “RNA1{[moe](G)[sp].[moe]([m5C])p.[moe](T)p.[moe]([m5C])p.[moe](A)p.d(T)[sp].d(T)[sp].d(T)[sp].d(A)[sp].d(T)[sp].d(T)[sp].d([m5C])[sp].d(T)[sp].d([m5C])[sp].d(A)[sp].[moe](A)p.[moe](G)p.[moe](T)[sp].[moe](A)}$$$$ (last 3' nucleoside missing)”, the 3 h FOB score was 1 score 0-7. “RNA1{[moe](T)[sp].[moe](G)p.[moe]([m5C])p.[moe](T)p.[moe]([m5C])p.d(A)[sp].d(T)[sp].d(T)[sp].d(T)[sp].d(A)[sp].d(T)[sp].d(T)[sp].d([m5C])[sp].d(T)[sp].d([m5C])[sp].[moe](A)p.[moe](A)p.[moe](G)[sp].[moe](T)}$$$$ (last 3' nucleoside missing)” showed a 3 h FOB score of 1 score 0-7. Substance “RNA1{[moe](T)[sp].[moe](A)p.[moe](A)p.[moe](T)p.[moe](A)[sp].d([m5C])[sp].d(T)[sp].d(T)[sp].d(U)[sp].d(T)[sp].d(T)[sp].d([m5C])[sp].d([m5C])[sp].d(A)[sp].d(G)[sp].[moe]([m5C])p.[moe]([m5C])p.[moe](T)[sp].[moe](T)}$$$$ (last 3' nucleoside missing)” has a 3 h FOB score of 1 score 0-7. Work on “RNA1{[moe]([m5C])[sp].[moe](A)p.[moe](A)p.[moe](T)p.[moe](A)[sp].d(T)[sp].d(T)[sp].d(T)[sp].d(A)[sp].d(T)[sp].d(A)[sp].d(G)[sp].d(G)[sp].d(T)[sp].d(G)[sp].[moe]([m5C])p.[moe](T)p.[moe](G)[sp].[moe]([m5C])}$$$$ (last 3' nucleoside missing)” yielded a 3 h FOB score of 4.5 score 0-7. Substance “RNA1{[moe](G)[sp].[moe]([m5C])[sp].[moe](A)p.[moe]([m5C])p.[moe]([m5C])[sp].d(A)[sp].d(T)[sp].d(A)[sp].d(T)[sp].d(A)[sp].d(T)[sp].d(A)[sp].d(T)[sp].d([m5C])[sp].d(T)[sp].[moe]([m5C])p.[moe](A)p.[moe](G)[sp].[moe](A)}$$$$ (last 3' nucleoside missing)” has a 3 h FOB score of 1 score 0-7. For “RNA1{[moe](T)[sp].[moe](G)p.[moe]([m5C])p.[moe](T)p.[moe]([m5C])p.[moe](A)p.d(T)[sp].d(T)[sp].d(T)[sp].d(A)[sp].d(T)[sp].d(T)[sp].d([m5C])[sp].d(T)[sp].d([m5C])[sp].d(A)[sp].[moe](A)p.[moe](G)[sp].[moe](T)}$$$$ (last 3' nucleoside missing)”, the 3 h FOB score was 0 score 0-7. With “RNA1{[moe](T)[sp].[moe](G)p.[moe]([m5C])p.[moe](T)p.[moe](T)[sp].d(T)[sp].d(T)[sp].d([m5C])[sp].d(A)[sp].d(T)[sp].d(A)[sp].d([m5C])[sp].d([m5C])[sp].d(A)[sp].d(G)[sp].[moe](G)p.[moe](T)p.[moe]([m5C])[sp].[moe](T)}$$$$ (last 3' nucleoside missing)” the 3 h FOB score was 0.25 score 0-7. Substance “RNA1{[moe](A)[sp].[moe]([m5C])p.[moe]([m5C])p.[moe]([m5C])p.[moe](A)[sp].d(A)[sp].d(T)[sp].d(A)[sp].d(A)[sp].d(T)[sp].d([m5C])[sp].d(T)[sp].d(G)[sp].d(A)[sp].d([m5C])[sp].[moe](A)p.[moe](T)p.[moe]([m5C])[sp].[moe]([m5C])}$$$$ (last 3' nucleoside missing)” has a 3 h FOB score of 0 score 0-7.
